The results in this text go back to patent US7858796B2, “Chemical compounds” (Glaxo Group Limited, priority 2004, dated 2010).

Molecules are shown by their SMILES. Some results are limits rather than exact numbers.

This experiment has as its system human monocyte stimulated cytokine production (TNF-α). The experiment is described as follows: Monocyte Assay (LPS-stimulated TNF-α production). Format: cell-based. Conditions: human CD14+ monocytes, 200 ng/mL LPS, 24 hrs, TNF-α by ELISA. Here is the method: Effect of IKK-β inhibition on human monocyte stimulated cytokine production was assessed as follows: Monocytes were isolated from heparinized whole blood by Ficoll gradient, followed by purification of CD14+ cells using MACS magnetic cell separation beads. Isolated monocytes were then adhered to 96-well culture plates at 1×10^6 cells/mL in RPMI 1640 10% FBS (JRH Biosciences, Lenexa Kans.) for 2 h. to further enrich the monocyte population. The media was then removed, cells washed once with RPMI 1640, and 0.125 mL RPMI 1640 10% FBS was added to the wells. Test compounds are added to the wells 30 minutes prior to stimulation with a final vehicle concentration of 0.1% DMSO. Monocytes were activated by the addition of 200 ng/mL endotoxin (LPS; E. coli serotype 026:B6) (Sigma, St. Louis, Mo.) and incubated for 24 hrs at 37 C. Cell-free supernates were analyzed by ELISA for TNF-α using Pharmingen matched pair Abs. Viability of the cells was determined by10% trypan blue exclusion.
A word on the IC50: it is the midpoint of a concentration-inhibition curve. `CN1CCN(CCCS(=O)(=O)N2CCC(c3c[nH]c4c(C(N)=O)cc(-c5ccsc5)cc34)CC2)CC1` [Example 72, 3-(1-{[3-(4-methyl-1-piperazinyl)propyl]sulfonyl}-4-piperidinyl)-5-(3-thienyl)-1H-indole-7-carboxamide] had a concentration for half-maximal inhibition (IC50) of less than 10 µM. On to `NC(=O)c1cc(-c2cccs2)cc2c(C3CCN(S(=O)(=O)CCCN4CCOCC4)CC3)c[nH]c12` [Example 73, 3-(1-{[3-(4-morpholinyl)propyl]sulfonyl}-4-piperidinyl)-5-(2-thienyl)-1H-indole-7-carboxamide], for which the concentration for half-maximal inhibition (IC50) is less than 10 µM.

On to `NC(=O)c1cc(-c2ccsc2)cc2c(C3CCN(S(=O)(=O)CCCN4CCOCC4)CC3)c[nH]c12` [Example 74, 3-(1-{[3-(4-morpholinyl)propyl]sulfonyl}-4-piperidinyl)-5-(3-thienyl)-1H-indole-7-carboxamide], for which the IC50 was less than 10 µM.

The compound `NC(=O)c1cc(-c2ccc(F)cc2)cc2c(C3CCN(S(=O)(=O)CCCN4CCCC4)CC3)c[nH]c12` [Example 75, 5-(4-fluorophenyl)-3-(1-{[3-(1-pyrrolidinyl)propyl]sulfonyl}-4-piperidinyl)-1H-indole-7-carboxamide] showed an IC50 of less than 10 µM. With `CN(C)CCCS(=O)(=O)N1CCC(c2c[nH]c3c(C(N)=O)cc(-c4cccc(CO)c4)cc23)CC1` [Example 76, 3-(1-{[3-(dimethylamino)propyl]sulfonyl}-4-piperidinyl)-5-[3-(hydroxymethyl)phenyl]-1H-indole-7-carboxamide], the IC50 is less than 10 µM. On to `NC(=O)c1cc(-c2cccc(CO)c2)cc2c(C3CCN(S(=O)(=O)CCCN4CCCC4)CC3)c[nH]c12` [Example 83, 5-[3-(hydroxymethyl)phenyl]-3-(1-{[3-(1-pyrrolidinyl)propyl]sulfonyl}-4-piperidinyl)-1H-indole-7-carboxamide], for which the IC50 was less than 10 µM. Next, `CCNCc1cccc(-c2cc(C(N)=O)c3[nH]cc(C4CCN(S(=O)(=O)CCCN(C)C)CC4)c3c2)c1` [Example 96, 3-(1-{[3-(dimethylamino)propyl]sulfonyl}-4-piperidinyl)-5-{3-[(ethylamino)methyl]phenyl}-1H-indole-7-carboxamide]: less than 10 µM; `CC(C)(C)OC(=O)N1CCC(NCCCS(=O)(=O)N2CCC(c3c[nH]c4c(C(N)=O)cc(-c5ccccc5)cc34)CC2)CC1` [Example 108, 1,1-dimethylethyl 4-{[3-({4-[7-(aminocarbonyl)-5-phenyl-1H-indol-3-yl]-1-piperidinyl}sulfonyl)propyl]amino}-1-piperidinecarboxylate]: less than 10 µM; `NC(=O)c1cc(-c2ccccc2)cc2c(C3CCN(S(=O)(=O)CCCNC4CCNCC4)CC3)c[nH]c12` [Example 109, 5-phenyl-3-(1-{[3-(4-piperidinylamino)propyl]sulfonyl}-4-piperidinyl)-11 indole-7-carboxamide]: less than 10 µM. Take `COCCCS(=O)(=O)N1CCC(c2c[nH]c3c(C(N)=O)cc(-c4ccccc4)cc23)CC1` [Example 160, 3-(1-{[3-(methyloxy)propyl]sulfonyl}-4-piperidinyl)-5-phenyl-1H-indole-7-carboxamide]: the IC50 is less than 10 µM. `NC(=O)c1cc(-c2ccccc2)cc2c(C3CCN(S(=O)(=O)CCCOCC4CC4)CC3)c[nH]c12` [Example 164, 3-[1-({3-[(cyclopropylmethyl)oxy]propyl}sulfonyl)-4-piperidinyl]-5-phenyl-1H-indole-7-carboxamide] showed an IC50 of less than 10 µM. The compound `CC(O)C(C)OCCCS(=O)(=O)N1CCC(c2c[nH]c3c(C(N)=O)cc(-c4ccccc4)cc23)CC1` (stereo not shown) [Example 165, 3-[1-({3-[(2-hydroxy-1-methylpropyl)oxy]propyl}sulfonyl)-4-piperidinyl]-5-phenyl-1H-indole-7-carboxamide] registered a 50% inhibitory concentration (IC50) of less than 10 µM. With `NC(=O)c1cc(-c2ccccc2)cc2c(C3CCN(S(=O)(=O)CCCO)CC3)c[nH]c12` [Example 174, 3-{1-[(3-hydroxypropyl)sulfonyl]-4-piperidinyl}-5-phenyl-1H-indole-7-carboxamide] the figure was less than 10 µM. As for `CCOCCS(=O)(=O)N1CCC(c2c[nH]c3c(C(N)=O)cc(-c4ccccc4)cc23)CC1` [Example 175, 3-(1-{[2-(ethyloxy)ethyl]sulfonyl}-4-piperidinyl)-5-phenyl-1H-indole-7-carboxamide], the half-inhibitory concentration (IC50) was less than 10 µM. With `CCOCCCS(=O)(=O)N1CCC(c2c[nH]c3c(C(N)=O)cc(-c4ccccc4)cc23)CC1` [Example 176, 3-(1-{[3-(ethyloxy)propyl]sulfonyl}-4-piperidinyl)-5-phenyl-1H-indole-7-carboxamide] the figure was less than 10 µM. Take `NC(=O)c1cc(-c2ccccc2)cc2c(C3CCN(S(=O)(=O)CCOCCN4CCCCC4)CC3)c[nH]c12` [Example 178, 5-phenyl-3-{1-[(2-{[2-(1-piperidinyl)ethyl]oxy}ethyl)sulfonyl]-4-piperidinyl}-1H-indole-7-carboxamide]: the 50% inhibitory concentration (IC50) was less than 10 µM. In turn, `CC(C)NCc1cccc(-c2cc(C(N)=O)c3[nH]cc(C4CCN(S(=O)(=O)CCCN(C)C)CC4)c3c2)c1` [Example 214, 3-(1-{[3-(dimethylamino)propyl]sulfonyl}-4-piperidinyl)-5-(3-{[(1-methylethyl)amino]methyl}phenyl)-1H-indole-7-carboxamide] displayed a half-inhibitory concentration (IC50) of less than 10 µM. `CONCCS(=O)(=O)N1CCC(c2c[nH]c3c(C(N)=O)cc(-c4ccccc4)cc23)CC1` [Example 215, 3-[1-({2-[(methyloxy)amino]ethyl}sulfonyl)-4-piperidinyl]-5-phenyl-1H-indole-7-carboxamide] displayed an IC50 of less than 10 µM. `CONCCCS(=O)(=O)N1CCC(c2c[nH]c3c(C(N)=O)cc(-c4ccccc4)cc23)CC1` [Example 219, 3-[1-({3-[(methyloxy)amino]propyl}sulfonyl)-4-piperidinyl]-5-phenyl-1H-indole-7-carboxamide] returned an IC50 of less than 10 µM. `CNCc1cccc(-c2cc(C(N)=O)c3[nH]cc(C4CCN(S(=O)(=O)CCCOC)CC4)c3c2)c1` [Example 223, 5-{3-[(methylamino)methyl]phenyl}-3-(1-{[3-(methyloxy)propyl]sulfonyl}-4-piperidinyl)-1H-indole-7-carboxamide] registered an IC50 of less than 10 µM. With `COCCCS(=O)(=O)N1CCC(c2c[nH]c3c(C(N)=O)cc(-c4cccs4)cc23)CC1` [Example 262, 3-(1-{[3-(methyloxy)propyl]sulfonyl}-4-piperidinyl)-5-(2-thienyl)-1H-indole-7-carboxamide] the figure was less than 10 µM; with `CCOCCCS(=O)(=O)N1CCC(c2c[nH]c3c(C(N)=O)cc(-c4ccsc4)cc23)CC1` [Example 263, 3-(1-{[3-(ethyloxy)propyl]sulfonyl}-4-piperidinyl)-5-(3-thienyl)-1H-indole-7-carboxamide], less than 10 µM.

Take `CCOCCCS(=O)(=O)N1CCC(c2c[nH]c3c(C(N)=O)cc(-c4cccs4)cc23)CC1` [Example 264, 3-(1-{[3-(ethyloxy)propyl]sulfonyl}-4-piperidinyl)-5-(2-thienyl)-1H-indole-7-carboxamide]: the half-inhibitory concentration (IC50) is less than 10 µM.

Consider `NC(=O)c1cc(-c2cccs2)cc2c(C3CCN(S(=O)(=O)CCCO)CC3)c[nH]c12` [Example 265, 3-{1-[(3-hydroxypropyl)sulfonyl]-4-piperidinyl}-5-(2-thienyl)-1H-indole-7-carboxamide], for which the half-inhibitory concentration (IC50) is less than 10 µM. `Cn1cnc(S(=O)(=O)N2CCC(c3c[nH]c4c(C(N)=O)cc(-c5ccccc5)cc34)CC2)c1` [Example 267, 3-{1-[(1-methyl-1H-imidazol-4-yl)sulfonyl]-4-piperidinyl}-5-phenyl-1H-indole-7-carboxamide] showed a half-inhibitory concentration (IC50) of less than 10 µM. `NC(=O)c1cc(-c2ccccc2)cc2c(C3CCN(S(=O)(=O)c4cccs4)CC3)c[nH]c12` [Example 268, 5-phenyl-3-[1-(2-thienylsulfonyl)-4-piperidinyl]-1H-indole-7-carboxamide] registered a concentration for half-maximal inhibition (IC50) of less than 10 µM. `NC(=O)c1cc(-c2ccccc2)cc2c(C3CCN(S(=O)(=O)c4ccc(CNCc5ccccc5)s4)CC3)c[nH]c12` [Example 271, 5-phenyl-3-{1-[(5-{[(phenylmethyl)amino]methyl}-2-thienyl)sulfonyl]-4-piperidinyl}-1H-indole-7-carboxamide] gave an IC50 of less than 10 µM. Regarding `CC(=O)Nc1nc(C)c(S(=O)(=O)N2CCC(c3c[nH]c4c(C(N)=O)cc(-c5ccccc5)cc34)CC2)s1` [Example 272, 3-(1-{[2-(acetylamino)-4-methyl-1,3-thiazol-5-yl]sulfonyl}-4-piperidinyl)-5-phenyl-1H-indole-7-carboxamide], the 50% inhibitory concentration (IC50) was less than 10 µM. `Cc1nn(C)c(Cl)c1S(=O)(=O)N1CCC(c2c[nH]c3c(C(N)=O)cc(-c4ccccc4)cc23)CC1` [Example 273, 3-{1-[(5-chloro-1,3-dimethyl-1H-pyrazol-4-yl)sulfonyl]-4-piperidinyl}-5-phenyl-1H-indole-7-carboxamide] showed a half-maximal inhibitory concentration (IC50) of less than 10 µM. Consider `NC(=O)c1cc(-c2ccccc2)cc2c(C3CCN(S(=O)(=O)c4ccc5nonc5c4Cl)CC3)c[nH]c12` [Example 274, 3-{1-[(4-chloro-2,1,3-benzoxadiazol-5-yl)sulfonyl]-4-piperidinyl}-5-phenyl-1H-indole-7-carboxamide], for which the IC50 is less than 10 µM. As to `Cc1nc(S(=O)(=O)N2CCC(c3c[nH]c4c(C(N)=O)cc(-c5ccccc5)cc34)CC2)cn1C` [Example 275, 3-{1-[(1,2-dimethyl-1H-imidazol-4-yl)sulfonyl]-4-piperidinyl}-5-phenyl-1H-indole-7-carboxamide], the IC50 was less than 10 µM.
